Consider eight compounds from US9371331B2, “Modulators of methyl modifying enzymes, compositions and uses thereof” (Constellation Pharmaceuticals, Inc., priority 2012, dated 2016).

Read-outs that look alike come from different tables or passages of the source. Where only a bound is given, the exact number is not on record here.

In test [1] the test system is H3K27me3 mark in HeLa cells. Nature of the test: H3K27me3 Alpha Hela Assay (AlphaLISA). The format is cell-based. As to conditions: 72 hrs; for EC50: Homo sapiens, read-out: H3K27me3_Alpha_HeLa_ (EC50). As for the experimental part:
H3K27me3 Alpha Hela Assay (AlphaLISA).
Ten different doses of each test compound (in a series of 3-fold dilutions) were plated in duplicate 384-well tissue culture treated plates (Catalog #781080; Greiner Bio One; Monroe, N.C.). Hela cells grown in culture were trypsinized and counted using a Countess® cell counter (Catalog #C10281; Life Technologies, Grand Island, N.Y.). Cell were diluted to 67,000 cells per mL in 10% DMEM (Catalog #10569-010 Life Technologies. Grand Island, N.Y.) and 15 μL (1,000 cells) were plated into each well using the Biotek MicroFlo™ Select Dispenser (BioTek Instruments. Inc. Vermont, USA),) of the 384-well plate. Plates were incubated at 37° C./5% CO2 for 72 hrs. One of the duplicate plates was processed for HeLa assay and the other for viability.
To the plate processed for AlphaLISA was added 5 μL per well Cell-Histone Lysis buffer (1×) (Catalog #AL009F1 Perkin Elmer; Waltham, Mass.) and the plate was incubated at RT for 30 minutes on a plate shaker with low speed (Model#4625-Q Thermo Scientific; Waltham, Mass.). Then, 10 µL per well Histone Extraction buffer (catalog #AL009F2: Perkin Elmer; Waltham, Mass.) was added and the plate further incubated at RT for 20 min on plate shaker with low speed. To each well was then added 10 μL per well of a 5× mix of anti-K27me3 acceptor beads plus Biotinylated anti-Histone H3 (C-ter) Antibody (diluted to 3 nM final) (Catalog #AL118 Perkin Elmer; Waltham, Mass.). Dilution of the acceptor beads and then anti-Histone H3 was with 1× Histone Detection buffer (Catalog #AL009F3 Perkin Elmer; Waltham, Mass.) which was produced diluted from the 10× stock provided. The plate was sealed with an aluminum plate sealer and incubated at 23° C. for 60 min. We then added 10 μL 5× solution of Streptavidin Donor beads (Catalog #6760002 Perkin Elmer; Waltham, Mass.) (20 μg/mL final in 1× Histone Detection Buffer), sealed the plate with Aluminum plate sealer and incubated at 23° C. for 30 min. The plates were then read using an EnVision-Alpha Reader (model #2104 Perkin Elmer: Waltham, Mass.).
Data from both assays was analyzed using Assay Assistant (Constellation Pharmaceuticals In-house product) and Activity Base (IDBS Ltd. Surrey, UK) template. Data files were imported to Assay Assistant and assay conditions were specified. A unique Analysis ID was created and the data files exported to Activity Base. An analysis template was created on Activity Base to measure dose-dependent inhibition of H3K27me3 mark and cell viability respectively. Readout of DMSO wells were used to normalize the data. Resulting curves were fitted using Activity base software Model 205 (IDBS Ltd, Surrey, UK). The data was checked for quality, validated and integrated in excel format using SARview (IDBS Ltd, Surrey, UK).

The next test has as its target Y641N EZH2 (Homo sapiens, UniProt Q15910, Y641N). The experiment in a line: Y641N EZH2 assay: as EZH2 assay, with reconstituted H3K27Me2 oligonucleosomes as substrate. The format is biochemical.
In another test the target is EZH2 (rPRC2) (Homo sapiens, UniProt Q15910). Nature of the test: EZH2 assay: rPRC2, biotinylated oligonucleosomes, 3H SAM methyl transfer (FlashPlate scintillation). The format is biochemical. To be noted: biotinylated oligonucleosome substrate.
Where [2] appears, read: Y641N EZH2 IC50, Y641N mutant EZH2, H3K27Me2 oligonucleosome substrate.
The mark [3] stands for this setting: EZH2 IC50, wild-type EZH2 (rPRC2).

The term IC50 denotes the concentration that gives 50% inhibition. The term EC50 denotes the concentration giving half of the maximal effect.

EZH2 (rPRC2), sequence (Q15910 whole entry): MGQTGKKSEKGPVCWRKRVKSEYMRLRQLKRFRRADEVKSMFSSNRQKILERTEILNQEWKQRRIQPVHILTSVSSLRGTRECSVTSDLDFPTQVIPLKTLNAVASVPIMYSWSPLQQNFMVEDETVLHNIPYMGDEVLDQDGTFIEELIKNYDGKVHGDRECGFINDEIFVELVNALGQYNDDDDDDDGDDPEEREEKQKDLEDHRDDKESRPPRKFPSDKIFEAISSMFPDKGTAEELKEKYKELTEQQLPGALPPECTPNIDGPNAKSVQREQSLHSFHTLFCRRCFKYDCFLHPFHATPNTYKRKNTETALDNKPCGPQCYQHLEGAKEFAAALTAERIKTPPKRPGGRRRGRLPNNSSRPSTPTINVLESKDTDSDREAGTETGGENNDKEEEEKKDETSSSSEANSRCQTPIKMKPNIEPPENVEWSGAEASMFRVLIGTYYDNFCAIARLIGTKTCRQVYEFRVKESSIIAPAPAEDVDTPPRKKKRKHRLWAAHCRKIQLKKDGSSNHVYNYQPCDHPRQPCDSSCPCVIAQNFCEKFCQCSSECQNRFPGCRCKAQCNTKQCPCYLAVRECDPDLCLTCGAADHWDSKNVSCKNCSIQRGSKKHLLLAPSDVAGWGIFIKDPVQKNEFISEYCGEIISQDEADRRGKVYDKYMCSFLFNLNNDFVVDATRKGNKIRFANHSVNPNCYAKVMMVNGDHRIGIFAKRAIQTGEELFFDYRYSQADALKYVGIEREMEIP
EZH2 (rPRC2), sequence (O75530 whole entry partner): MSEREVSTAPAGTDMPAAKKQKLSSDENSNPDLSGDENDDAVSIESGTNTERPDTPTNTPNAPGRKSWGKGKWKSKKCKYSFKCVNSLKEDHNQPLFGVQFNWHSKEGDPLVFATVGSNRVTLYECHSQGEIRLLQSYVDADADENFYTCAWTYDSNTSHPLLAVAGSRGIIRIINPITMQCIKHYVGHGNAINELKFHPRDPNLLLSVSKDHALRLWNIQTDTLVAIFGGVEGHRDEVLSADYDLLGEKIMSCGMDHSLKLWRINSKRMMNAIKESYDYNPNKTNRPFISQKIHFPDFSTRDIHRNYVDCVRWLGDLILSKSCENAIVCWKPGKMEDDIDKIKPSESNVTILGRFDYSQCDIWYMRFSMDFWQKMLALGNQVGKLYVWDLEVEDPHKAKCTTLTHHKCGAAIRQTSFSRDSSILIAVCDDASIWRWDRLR
EZH2 (rPRC2), sequence (Q15022 whole entry partner): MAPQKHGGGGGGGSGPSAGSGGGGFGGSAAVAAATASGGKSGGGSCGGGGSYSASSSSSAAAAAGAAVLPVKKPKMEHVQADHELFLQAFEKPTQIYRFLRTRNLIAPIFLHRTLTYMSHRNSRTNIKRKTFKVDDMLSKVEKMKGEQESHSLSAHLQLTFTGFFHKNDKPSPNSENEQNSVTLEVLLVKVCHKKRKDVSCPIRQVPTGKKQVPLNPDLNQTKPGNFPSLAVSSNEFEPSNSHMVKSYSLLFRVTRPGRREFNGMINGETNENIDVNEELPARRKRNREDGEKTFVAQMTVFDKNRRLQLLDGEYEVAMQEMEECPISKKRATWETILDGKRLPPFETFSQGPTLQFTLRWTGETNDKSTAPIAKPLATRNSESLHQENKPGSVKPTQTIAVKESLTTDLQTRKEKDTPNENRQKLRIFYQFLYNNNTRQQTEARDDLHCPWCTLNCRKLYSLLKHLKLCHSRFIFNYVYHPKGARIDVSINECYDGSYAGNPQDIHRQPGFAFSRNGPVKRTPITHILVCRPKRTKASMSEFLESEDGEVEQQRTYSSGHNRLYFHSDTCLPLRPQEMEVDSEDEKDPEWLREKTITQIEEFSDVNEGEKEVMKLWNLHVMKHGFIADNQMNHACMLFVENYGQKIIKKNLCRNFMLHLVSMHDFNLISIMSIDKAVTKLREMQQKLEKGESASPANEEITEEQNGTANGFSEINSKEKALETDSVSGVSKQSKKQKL
Y641N EZH2, sequence (Q15910 whole entry Y641N): as the sequence (Q15910 whole entry) above, with Y641N counted along it
Y641N EZH2, sequence (O75530 whole entry partner): as the sequence (O75530 whole entry partner) above
Y641N EZH2, sequence (Q15022 whole entry partner): as the sequence (Q15022 whole entry partner) above

As to `COc1cc(C)[nH]c(=O)c1CNC(=O)c1c(C)n(C(C)c2ccnc(N3CCNCC3)c2)c2ccccc12` (racemic) [Compound 353, (±)-N-((4-methoxy-6-methyl-2-oxo-1,2-dihydropyridin-3-yl)methyl)-2-methyl-1-(1-(2-(piperazin-1-yl)pyridine-4-yl)ethyl)-1H-indole-3-carboxamide], the “H3K27me3_Alpha_HeLa_ (EC50)” value in test [1] is “*(3.33 μM)”. For the same compound, the IC50 against Y641N EZH2 (setting [2]) and against EZH2 (rPRC2) (setting [3]) was less than 100 nM throughout.

As to `COc1cc(C)[nH]c(=O)c1CNC(=O)c1c(C)n(C(C)C2CN(S(C)(=O)=O)C2)c2ccccc12` (racemic) [Compound 354, (±)-N-((4-methoxy-6-methyl-2-oxo-1,2-dihydropyridin-3-yl)methyl)-2-methyl-1-(1-(1-(methylsulfonyl)azetidin-3-yl)ethyl)-1H-indole-3-carboxamide], the EC50 in test [1] was 400 to 2000 nM. Also, the 50% inhibitory concentration (IC50) at Y641N EZH2 (setting [2]) and against EZH2 (rPRC2) (setting [3]) was less than 100 nM throughout.

In the case of `Cc1cc(C)c(CNC(=O)c2c(C)n(C(C)C3CC3)c3ncccc23)c(=O)[nH]1` (single isomer, unassigned) [Compound 253, (R or S)-(±)-1-(1-cyclopropylethyl)-N-((4,6-dimethyl-2-oxo-1,2-dihydropyridin-3-yl)methyl)-2-methyl-1H-pyrrolo[2,3-b]pyridine-3-carboxamide], in test [1], the concentration for a half-maximal effect (EC50) was less than 400 nM. The concentration for half-maximal inhibition (IC50) at Y641N EZH2 (read-out: Y641N EZH2 IC50, Y641N mutant EZH2, H3K27Me2 oligonucleosome substrate) was 100 to 1000 nM; on EZH2 (rPRC2) (read-out: EZH2 IC50, wild-type EZH2 (rPRC2)), less than 100 nM.

With `COc1cc(C)[nH]c(=O)c1CNC(=O)c1c(C)n(C(C)C2CCOCC2)c2cc(Cl)ccc12` (single isomer, unassigned) [Compound 314, (R or S)-6-chloro-N-((4-methoxy-6-methyl-2-oxo-1,2-dihydropridin-3-1)methyl)-2-methyl-1-(1-(tetrahydro-2H-pyran-4-yl)ethyl)-1H-indole-3-carboxamide], the 50% effective concentration (EC50) in test [1] is less than 400 nM. Also, the concentration for half-maximal inhibition (IC50) at Y641N EZH2 (setting [2]) and on EZH2 (rPRC2) (setting [3]) was less than 100 nM in each case.

With `Cc1cc(OC(F)F)c(CNC(=O)c2c(C)n(C(C)C3CCOCC3)c3ccccc23)c(=O)[nH]1` (single isomer, unassigned) [Compound 335, (R or S)-N-((4-(difluoromethoxy)-6-methyl-2-oxo-1,2-dihydropyridin-3-yl)methyl)-2-methyl-1-(1-(tetrahydro-2 H-pyran-4-yl)ethyl)-1 H-indole-3-carboxamide], the EC50 in test [1] was less than 400 nM. Moreover, the concentration for half-maximal inhibition (IC50) at Y641N EZH2 (setting [2]) and on EZH2 (rPRC2) (setting [3]) was less than 100 nM each time.

As to `COc1cc(C)[nH]c(=O)c1CNC(=O)c1c(C)n(C(C)C2CCN(C)CC2)c2ccccc12` (single isomer, unassigned) [Compound 343, (R or S)-N-((4-methoxy-6-methyl-2-oxo-1,2-dihydropyridin-3-yl)methyl)-2-methyl-1-(1-(1-methylpiperidin-4-yl)ethyl)-1H-indole-3-carboxamide], the EC50 in test [1] lay in the range of 400 to 2000 nM. Moreover, the half-inhibitory concentration (IC50) against Y641N EZH2 (setting [2]) and against EZH2 (rPRC2) (setting [3]) was less than 100 nM throughout.

Consider `CCS(=O)(=O)C1(C(C)n2c(C)c(C(=O)NCc3c(OC)cc(C)[nH]c3=O)c3ccccc32)CCNCC1` (single isomer, unassigned) [Compound 345, (R or S)-1-(1-(4-(ethylsulfonyl)piperidin-4-yl)ethyl)-N-((4-methoxy-6-methyl-2-oxo-1,2-dihydropyridin-3-yl)methyl)-2-methyl-1 H-indole-3-carboxamide], for which, in test [1], the EC50 is less than 400 nM. In addition, the IC50 at Y641N EZH2 (setting [2]) and at EZH2 (rPRC2) (setting [3]) was less than 100 nM each time.

With `COc1cc(C)[nH]c(=O)c1CNC(=O)c1c(C)n(C(C)C2CCN(C(=O)OC(C)C)CC2)c2ccccc12` (single isomer, unassigned) [Compound 346, (R or S)-isopropyl 4-(1-(3-((4-methoxy-6-methyl-2-oxo-1,2-dihydropyridin-3-yl)methylcarbamoyl)-2-methyl-1H-indol-1-yl)ethyl)piperidine-1-carboxylate], the half-maximal effective concentration (EC50) in test [1] was less than 400 nM. The IC50 on Y641N EZH2 (setting [2]) and against EZH2 (rPRC2) (setting [3]) was less than 100 nM in each case.
